Like-named read-outs stand apart in the source and are kept apart here.
Assays:
DNA = conditions: for Fluorescent Intensity: 7.5 μg DNA, 7.5 μl ethidium bromide buffer
Experimental: A stock solution of 1.26 μM ethidium bromide containing 2 mM HEPES, 8 mM sodium chloride and 0.05 mM EDTA (pH=7) was prepared.

B16 melanoma = conditions: 40 mg/kg intraperitoneal, samples up to 72 hours after injection, compared with TCA-insoluble fraction
Experimental: Tissue samples were taken up to 72 hours after the injection. The samples were treated with trichloroacetic acid (TCA), such that the TCA-insoluble fraction contained the DNA and high molecular weight proteins, and the TCA-soluble fraction contained the cytoplasmic and membrane components of the cells. Inductively-coupled plasma mass spectrometry (ICP-MS) was used to measure the concentration of indium ions in the TCA-insoluble and TCA-soluble fractions.

[1] = system: KHJJ murine mammary carcinoma tumors; test: Auger electron therapy: tumor volume after 103Pd brachytherapy seed implantation with or without PtTMPyP(4); assay type: in vivo, BALB/C mice; conditions: for Tumor volume, mm^3 ± standard error, Auger Electron Therapy: 103 Pd seeds in combination with PtTMPyP(4): with 103Pd seeds
Experimental: General description. On day 0, after measurements of the length, width and height of the tumors, palladium-103 brachytherapy seeds were implanted into 12 KHJJ murine mammary carcinoma tumors borne on the thighs of 12 BALB/C mice. Twenty-four hours after seed implantation, 40 mg/kg, platinum (II)-tetrakis(N-methyl-4-pyridyl) porphyrin [PtTMPyP(4)], in the form of its chloride salt, was administered i.p. as a single bolus injection of 200 μl to the six mice undergoing AET. Tumor volume measurements were obtained two to three times weekly. Drug was also administered on days 5 (30 mg/kg), and 19 (20 mg/kg) following seed implantation.
Tumor. Prior to the experiment, tumors were excised from the donor mouse in a sterile environment, and fragmented into 1-2 mm sections in a Petri dish. After anesthetizing each mouse with ketamine/xylazine (10:1), a small slit was prepared through the skin on the thigh, ˜5 mm above and lateral to the distal femur of the right knee. To assure subcutaneous implantation of the tumor fragment, a magnifying glass with a fluorescent light was used to observe the sheen on the fascia surrounding the three sides of the ‘pocket’ produced by the slit. An 18 gauge trochar, into whose bevel a tumor fragment had been inserted, was positioned into the ‘pocket’. A stylette was used to push the fragment into the ‘pocket’. Tumors were implanted either 12 or 15 days prior to the experiment. Upon verification of tumor growth, those tumors of adequate size to accommodate the seed implant, were randomized into treatment groups (AET or radiation only) using a coin flip.
Measurements of tumor volume. Using a digital caliper, the length, width, and height of the tumors were measured. Being ellipsoid in their growth pattern, tumor volume was determined according to the formula, […].
Seed implantation. On day 0, after weighing the mice and measuring the length, width and height of the tumors, palladium-103 brachytherapy seeds (˜2.2 mCi in activity; Theragenics) were implanted into the thigh tumors as follows. The anesthetized mouse was positioned on a board whose angle was ˜45°. The tumor bearing leg was inserted through an elastic band, secured through the board. The foot was taped to the board. An 18 gauge trochar with a funnel head that was supported by a brace on a ring stand, was inserted into the center to the tumor. The seed, previously sterilized by dipping in ETOH, rinsing in a sterile PBS solution, and air-dried, was placed in the funnel of the trochar using long-nosed forceps. A stylette was used to insert the seed into the tumor, after which the trochar was withdrawn from the tumor and Neosporin was applied to the wound.
Drug delivery. The day after seed implantation (day 1), 40 mg/kg of PtTMPyP(4), in the form of its chloride salt, was administered intraperitoneally to the mice in the AET treatment group. On day 5, […] of PtTMPyP(4) was injected i.p., and on day 19, a dosage of 20 mg/kg was injected i.p.

C[n+]1ccc(-c2c3nc(c(-c4cc[n+](C)cc4)c4ccc([n-]4)c(-c4cc[n+](C)cc4)c4nc(c(-c5cc[n+](C)cc5)c5ccc2[n-]5)C=C4)C=C3)cc1.[In+3] [In^3+-tetra(N-methyl-4-pyridyl)-porphyrin]
Fluorescent Intensity (DNA; 0.25 μg complex): 85% | Fluorescent Intensity (DNA; 0.50 μg complex): 73% | Fluorescent Intensity (DNA; 0.75 μg complex): 63% | Fluorescent Intensity (DNA; 1.00 μg complex): 54% | Fluorescent Intensity (DNA; 1.25 μg complex): 47% | Fluorescent Intensity (DNA; 1.50 μg complex): 41% | Fluorescent Intensity (DNA; 1.75 μg complex): 35% | Fluorescent Intensity (DNA; 2.00 μg complex): 30% | Fluorescent Intensity (DNA; 2.25 μg complex): 26% | Fluorescent Intensity (DNA; 2.50 μg complex): 22% | Fluorescent Intensity (DNA; 2.75 μg complex): 19% | Fluorescent Intensity (DNA; 3.00 μg complex): 16% | Fluorescent Intensity (DNA; 3.25 μg complex): 13.4% | Fluorescent Intensity (DNA; 3.50 μg complex): 12% | Fluorescent Intensity (DNA; 3.75 μg complex): 10% | Fluorescent Intensity (DNA; 4.00 μg complex): 9% | binding to DNA by displacement of ethidium bromide (in words) (DNA; fluorescence decreases with increasing complex concentration, FIG. 2): displaces the ethidium bromide and becomes bound to the DNA | number of indium ions per cell in the TCA-soluble fraction (cytoplasmic and membrane components) (B16 melanoma): lesser amount

CN1C=CC(c2c3nc(c(C4=CCN(C)C=C4)c4ccc([nH]4)c(C4=CCN(C)C=C4)c4nc(c(C5=CCN(C)C=C5)c5ccc2[nH]5)C=C4)C=C3)=CC1.[Pt+2] [PtTMPyP(4), platinum (II)-tetrakis(N-methyl-4-pyridyl) porphyrin]
effect on tumor growth compared with radiation alone or no treatment (in words) ([1]; AET group, FIG. 4, mean tumor volume): significant delay in tumor control | Tumor volume, mm^3 ± standard error, Auger Electron Therapy: 103 Pd seeds in combination with PtTMPyP(4) ([1]; day 0 post seed implantation (before first drug dose)): 117.5 ± 18.6 mm^3 | Tumor volume, mm^3 ± standard error, Auger Electron Therapy: 103 Pd seeds in combination with PtTMPyP(4) ([1]; day 3 post seed implantation, i.p. 40 mg/kg day 1, 30 day 5, 20 day 19): 112.8 ± 15.3 mm^3 | Tumor volume, mm^3 ± standard error, Auger Electron Therapy: 103 Pd seeds in combination with PtTMPyP(4) ([1]; day 5 post seed implantation, i.p. 40 mg/kg day 1, 30 day 5, 20 day 19): 110.6 ± 25.7 mm^3 | Tumor volume, mm^3 ± standard error, Auger Electron Therapy: 103 Pd seeds in combination with PtTMPyP(4) ([1]; day 7 post seed implantation, i.p. 40 mg/kg day 1, 30 day 5, 20 day 19): 121.5 ± 29.4 mm^3 | Tumor volume, mm^3 ± standard error, Auger Electron Therapy: 103 Pd seeds in combination with PtTMPyP(4) ([1]; day 9 post seed implantation, i.p. 40 mg/kg day 1, 30 day 5, 20 day 19): 123.1 ± 26.9 mm^3 | Tumor volume, mm^3 ± standard error, Auger Electron Therapy: 103 Pd seeds in combination with PtTMPyP(4) ([1]; day 12 post seed implantation, i.p. 40 mg/kg day 1, 30 day 5, 20 day 19): 150.7 ± 31.5 mm^3 | Tumor volume, mm^3 ± standard error, Auger Electron Therapy: 103 Pd seeds in combination with PtTMPyP(4) ([1]; day 15 post seed implantation, i.p. 40 mg/kg day 1, 30 day 5, 20 day 19): 116.5 ± 44.9 mm^3 | Tumor volume, mm^3 ± standard error, Auger Electron Therapy: 103 Pd seeds in combination with PtTMPyP(4) ([1]; day 19 post seed implantation, i.p. 40 mg/kg day 1, 30 day 5, 20 day 19): 175.6 ± 69.2 mm^3 | Tumor volume, mm^3 ± standard error, Auger Electron Therapy: 103 Pd seeds in combination with PtTMPyP(4) ([1]; day 21 post seed implantation, i.p. 40 mg/kg day 1, 30 day 5, 20 day 19): 200.1 ± 81.9 mm^3 | Tumor volume, mm^3 ± standard error, Auger Electron Therapy: 103 Pd seeds in combination with PtTMPyP(4) ([1]; day 23 post seed implantation, i.p. 40 mg/kg day 1, 30 day 5, 20 day 19): 232.6 ± 91.2 mm^3 | Tumor volume, mm^3 ± standard error, Auger Electron Therapy: 103 Pd seeds in combination with PtTMPyP(4) ([1]; day 27 post seed implantation, i.p. 40 mg/kg day 1, 30 day 5, 20 day 19): 280.2 ± 90.6 mm^3 | factor between mean tumor volume with seeds only and with seeds plus drug ([1]; day 32, 103Pd seeds alone versus 103Pd seeds plus PtTMPyP(4)): 5 | Tumor volume, mm^3 ± standard error, Auger Electron Therapy: 103 Pd seeds in combination with PtTMPyP(4) ([1]; day 32 post seed implantation, i.p. 40 mg/kg day 1, 30 day 5, 20 day 19, 40 mg/kg): 356.2 ± 133.9 mm^3

From patent US20050112058A1, “Auger effect-based cancer therapy method” (Ben-Gurion University of the Negev, priority 2002, published 2005)
